The record followed here is publication PMC9554468, “Assessing potency and binding kinetics of soluble adenylyl cyclase (sAC) inhibitors to maximize therapeutic potential” (Frontiers in Physiology, 2022).

Where “and” joins values, the source holds several entries; their conditions need not be identical. Equal values may be shown once.

The target in this test is T1, sAC in 4-4 cells (HEK293 cells that stably overexpress sACt) (Rattus norvegicus, UniProt Q9Z286).
T1 construct: HEK293 cells that stably overexpress sACt; expressed in transfected cells
T1 sequence (Q9Z286 1-469 limits assumed): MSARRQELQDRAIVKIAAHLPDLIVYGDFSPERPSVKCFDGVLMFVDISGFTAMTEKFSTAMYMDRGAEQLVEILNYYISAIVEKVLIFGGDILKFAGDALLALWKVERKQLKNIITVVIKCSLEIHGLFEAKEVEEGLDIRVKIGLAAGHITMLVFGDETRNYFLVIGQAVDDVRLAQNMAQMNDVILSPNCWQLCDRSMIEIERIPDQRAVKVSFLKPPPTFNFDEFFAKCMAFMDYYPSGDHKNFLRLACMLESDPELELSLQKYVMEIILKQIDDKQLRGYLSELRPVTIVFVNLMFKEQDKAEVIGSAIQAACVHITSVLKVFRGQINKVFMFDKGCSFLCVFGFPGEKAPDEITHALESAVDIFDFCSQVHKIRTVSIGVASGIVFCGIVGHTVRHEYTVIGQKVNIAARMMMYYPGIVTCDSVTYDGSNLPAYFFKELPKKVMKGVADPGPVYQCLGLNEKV
As to the kind of experiment: cellular adenylyl cyclase activity assay (cAMP accumulation) in sAC overexpressing 4-4 cells. The format is cell-based, human. Conditions: 10 min preincubation, 500 μM IBMX 5 min, 37°C. The method, then:
For the assay, 1 × 10^5 4-4 cells were seeded in each well of a 24-well plate and incubated for 24 h in DMEM+10% FBS media at 37°C/5% CO2. One hour before the assay the media was aspirated and replaced with 300 μL fresh media. Cells were preincubated with sAC inhibitor at the indicated concentrations or vehicle (0.7% DMSO) for 10 min at 37°C. Intracellular cAMP accumulation was initiated by addition of 500 μM IBMX (Sigma-Aldrich), and cAMP was allowed to accumulate for 5-min. Intracellular cAMP was quantitated using the Direct cAMP Elisa kit (Enzo Life Sciences) following manufacturer’s instructions. GraphPad Prism (www.graphpad.com, version 9.3.1) was used for curve fitting of the concentration-response data and determination of IC50 values.
In addition to how tightly an inhibitor binds its target, efficacy against an intracellular enzyme target is also determined by factors that are present only in the context of cells, such as membrane permeability, non-specific protein binding and compound stability in media and inside cells.
On the technique in general: Changes in cAMP serve as a functional read-out for many G protein-coupled receptors.
The IC50 is the concentration needed to halve the response being measured. High values mean lower potency, low ones higher potency. Turning to `Cn1cc(Cc2ccccc2OCCN2CCOCC2)c(-c2cc(Cl)nc(N)n2)n1` [TDI-11155], the IC50 is 15.7 nM and 16 nM. Turning to `COC(=O)[C@H]1COCCN1CCOc1ccccc1Cc1cn(C(F)F)nc1-c1cc(Cl)nc(N)n1` [TDI-11891], inhibition was half-maximal at 2.3 nM (IC50). In the case of `COC(=O)[C@@H]1COCCN1CCOc1ccccc1Cc1cn(C(F)F)nc1-c1cc(Cl)nc(N)n1` [TDI-11893], the IC50 is 19.4 nM and 19 nM.
